In US20250179194A1, “COMPOSITIONS AND METHODS FOR IMMUNOTHERAPY TARGETING FLT3, PD-1, AND/OR PD-L1” (Cytoimmune Therapeutics, Inc., priority 2018, published 2025):

How the values were obtained:
[1] = test system: surface FLT3 expression in MOLM-13, U937, THP-1, MV4-11, and EOL-1 AML cell lines; assay: Surface FLT3 expression in AML cell lines after FLT3 inhibitor treatment; type: cell-based, human; settings: 10 μM, 48 hours
[2] = test system: FLT3 surface density expression on AML blasts; assay: Surface FLT3 expression by flow cytometry on AML patient blasts; type: cell-based, human; settings: 48 hours, peripheral blood samples
Experimental: FIG. 11 depicts the quantification of FLT3 surface density expression by flow cytometry on AML blasts before and after being treated with Midostaurin for 48 hours.
Further experiments were conducted to determine whether FLT3 expression was increased upon administration of an FLT3 inhibitor. […] FIG. 11 depicts the detection of surface FLT3 expression by flow cytometry in peripheral blood samples of patients who were treated with Midostaurin for 48 hours.

## CO[C@@H]1[C@H](N(C)C(=O)c2ccccc2)C[C@H]2O[C@]1(C)n1c3ccccc3c3c4c(c5c6ccccc6n2c5c31)C(=O)NC4 [Midostaurin]
[1]
  FLT3 surface expression in AML cell lines: upregulated
[2]
  FLT3 surface expression on AML patient blasts: upregulated

## CCCNc1nc(Nc2ccc(C#N)cc2)ncc1C#CCCCNC(=O)[C@H](C)N(C)C(=O)/C=C/CN(C)C [FF-10101]
[1]
  FLT3 surface expression in AML cell lines: upregulated

## Dovitinib [Dovitinib (TKI-258)]
[1]
  FLT3 surface expression in AML cell lines: upregulated
